Among the data in patent US10167279B2 (NOVARTIS AG, priority 2014, dated 2019) are IC50 values, retold here.

SMILES strings stand for the structures.

Sequence of b-Raf (V600E) (P15056 whole entry V600E): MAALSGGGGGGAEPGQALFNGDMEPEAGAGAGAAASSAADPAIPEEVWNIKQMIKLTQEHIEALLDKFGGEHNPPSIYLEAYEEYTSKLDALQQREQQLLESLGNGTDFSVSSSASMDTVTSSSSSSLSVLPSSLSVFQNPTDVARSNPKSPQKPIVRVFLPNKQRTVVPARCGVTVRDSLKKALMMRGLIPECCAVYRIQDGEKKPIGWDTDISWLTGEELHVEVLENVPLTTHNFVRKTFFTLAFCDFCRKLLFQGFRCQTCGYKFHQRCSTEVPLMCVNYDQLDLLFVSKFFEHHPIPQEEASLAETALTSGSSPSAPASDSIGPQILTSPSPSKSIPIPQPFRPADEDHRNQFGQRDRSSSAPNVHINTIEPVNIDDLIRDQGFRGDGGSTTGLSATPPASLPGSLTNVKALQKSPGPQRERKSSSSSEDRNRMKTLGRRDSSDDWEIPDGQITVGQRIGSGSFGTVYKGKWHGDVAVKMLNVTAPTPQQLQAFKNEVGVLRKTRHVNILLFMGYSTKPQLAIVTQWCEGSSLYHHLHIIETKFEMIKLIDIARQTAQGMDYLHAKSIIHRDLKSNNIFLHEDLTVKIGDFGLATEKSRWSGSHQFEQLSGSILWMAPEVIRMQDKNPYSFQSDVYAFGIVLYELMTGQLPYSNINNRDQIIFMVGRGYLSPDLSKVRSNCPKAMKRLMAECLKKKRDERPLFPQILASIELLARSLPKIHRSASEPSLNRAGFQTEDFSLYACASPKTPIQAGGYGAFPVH
Sequence of C-Raf FL (P04049 whole entry Y340E/Y341E): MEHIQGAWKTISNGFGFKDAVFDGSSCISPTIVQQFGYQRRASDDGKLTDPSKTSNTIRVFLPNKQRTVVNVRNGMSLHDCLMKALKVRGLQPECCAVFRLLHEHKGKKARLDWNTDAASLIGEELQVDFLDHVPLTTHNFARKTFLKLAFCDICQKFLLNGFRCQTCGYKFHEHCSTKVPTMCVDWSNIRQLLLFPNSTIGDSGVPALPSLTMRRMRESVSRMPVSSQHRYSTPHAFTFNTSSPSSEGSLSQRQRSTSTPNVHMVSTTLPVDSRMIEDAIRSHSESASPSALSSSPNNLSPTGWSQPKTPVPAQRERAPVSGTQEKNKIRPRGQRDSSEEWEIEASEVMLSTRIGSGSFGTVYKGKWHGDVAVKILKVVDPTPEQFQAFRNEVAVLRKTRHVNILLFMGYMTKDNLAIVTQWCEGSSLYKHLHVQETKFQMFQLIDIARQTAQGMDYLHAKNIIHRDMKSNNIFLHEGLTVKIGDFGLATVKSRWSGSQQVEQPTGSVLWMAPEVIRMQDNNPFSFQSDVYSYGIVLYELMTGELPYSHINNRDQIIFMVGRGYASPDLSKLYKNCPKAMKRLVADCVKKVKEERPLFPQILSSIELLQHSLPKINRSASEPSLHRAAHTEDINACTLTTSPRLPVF
Sequence of C-Raf FL (P63104 whole entry partner): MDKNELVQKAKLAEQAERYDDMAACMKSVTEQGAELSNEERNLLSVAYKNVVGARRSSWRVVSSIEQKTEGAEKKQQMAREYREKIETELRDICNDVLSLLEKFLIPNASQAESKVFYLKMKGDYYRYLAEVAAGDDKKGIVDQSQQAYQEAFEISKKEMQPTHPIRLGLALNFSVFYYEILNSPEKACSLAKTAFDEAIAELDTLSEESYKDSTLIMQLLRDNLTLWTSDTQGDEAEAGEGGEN

One assay has as its target b-Raf (V600E) (Homo sapiens (Human), UniProt P15056, V600E). Put plainly: In vitro Raf activity determination (Alpha Screen, phospho-MEK), b-Raf (V600E). The assay is classed as biochemical. Conditions: ATP 10 μM, 60 min pre-incubation, 3 hours reaction. From the text:
The activity of a compound according to the present invention can be assessed by well-known in vitro & in vivo methods. Raf inhibition data provided herein was obtained using the following procedures.
Sf9 cells co-expressing both proteins were lysed and subjected to immobilized nickel chromatography and eluted with Imidazole. A second column (StrepII binding column) was used and eluted with desthiobiotin. Protein Tags were removed using Prescission enzyme and the protein was further purified using a flowthrough step to remove tags.
Full length MEK1 with an inactivating K97R ATP binding site mutation is utilized as a RAF substrate. The MEK1 cDNA was subcloned with an N-terminal (his)6 tag into a vector for E. Coli expression. The MEK1 substrate was purified from E. Coli lysate by nickel affinity chromatography followed by anion exchange. The final MEK1 preparation was biotinylated (Pierce EZ-Link Sulfo-NHS-LC-Biotin) and concentrated.
The plate was incubated for 60 minutes at room temperature. […] The additions were carried out under dark conditions to protect the detection beads from light. A lid was placed on top of the plate and incubated for 1 hour at room temperature, after which the luminescence was read on a PerkinElmer Envision instrument.
As a reminder, the IC50 is the concentration at which inhibition is half-maximal. A lower IC50 goes with higher potency. `COc1ncc(-c2cc(NC(=O)c3cc(C(C)(F)F)ccn3)ccc2C)cc1C1(O)COC1` [Example 92, 4-(1,1-difluoroethyl)-N-(3-(5-(3-hydroxyoxetan-3-yl)-6-methoxypyridin-3-yl)-4-methylphenyl)picolinamide] returned an IC50 of 2.2 nM. Still for that read-out and setting: the result for `CCOc1ncc(-c2cc(NC(=O)c3cnnc(C(C)(C)C#N)c3)cnc2C)cc1C1(C)COC1` [Example 65, 6-(2-cyanopropan-2-yl)-N-(6′-ethoxy-2-methyl-5′-(3-methyloxetan-3-yl)-[3,3′-bipyridin]-5-yl)pyridazine-4-carboxamide] reads 7.13 nM.

Turning to `COc1ncc(-c2cc(NC(=O)c3cc(C(C)(F)F)ccn3)ccc2C)cc1C1(F)COC1` [Example 89, 4-(1,1-difluoroethyl)-N-(3-(5-(3-fluorooxetan-3-yl)-6-methoxypyridin-3-yl)-4-methylphenyl)picolinamide], the IC50 is 1.19 nM. Still for that read-out and setting: the result for `COc1ncc(-c2cc(NC(=O)c3cc(C(C)(F)F)ccn3)cnc2C)cc1C1(O)COC1` [Example 91] reads 13 nM.

The next assay addresses C-Raf FL (Homo sapiens (Human), UniProt P04049, Y340E/Y341E). Put plainly: In vitro Raf activity determination (Alpha Screen, phospho-MEK), C-Raf FL (full length, Y340E/Y341E). The assay is classed as biochemical. Conditions: ATP 1 μM; 60 min pre-incubation; 1 hour reaction; column head does not say FL or TR. The procedure, abridged: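 Sf9-expressed C-Raf incubated with biotinylated kinase-dead MEK1 (K97R) in 50 mM Tris pH 7.5, 15 mM MgCl2, 0.01% BSA, 1 mM DTT with compound, 60 min at room temperature. Phospho-MEK detected by anti-p-MEK AlphaScreen luminescence; IC50 by non-linear regression.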
As to `COc1ncc(-c2cc(NC(=O)c3cc(C(C)(F)F)ccn3)ccc2C)cc1C1(O)COC1` [Example 92, 4-(1,1-difluoroethyl)-N-(3-(5-(3-hydroxyoxetan-3-yl)-6-methoxypyridin-3-yl)-4-methylphenyl)picolinamide], the IC50 was found to be 0.333 nM. Still for that read-out and setting: to `CCOc1ncc(-c2cc(NC(=O)c3cnnc(C(C)(C)C#N)c3)cnc2C)cc1C1(C)COC1` [Example 65, 6-(2-cyanopropan-2-yl)-N-(6′-ethoxy-2-methyl-5′-(3-methyloxetan-3-yl)-[3,3′-bipyridin]-5-yl)pyridazine-4-carboxamide] belongs 1.13 nM; to `Cc1ccc(NC(=O)c2ccnc(C(F)(F)F)c2)cc1-c1cc(OCCO)nc(C2CCOCC2)c1` [Example 190, N-(3-(2-(2-hydroxyethoxy)-6-(tetrahydro-2H-pyran-4-yl)pyridin-4-yl)-4-methylphenyl)-2-(trifluoromethyl) isonicotinamide], 0.795 nM; to `CCOc1nnc(-c2cc(NC(=O)c3cnnc(C(F)(F)F)c3)ccc2C)cc1C1CCOCC1` [Example 237, N-(5-(6-ethoxy-5-(tetrahydro-2H-pyran-4-yl)pyridazin-3-yl)-4-methylphenyl)-6-(trifluoromethyl) pyridazine-4-carboxamide], 0.1 nM. Same read-out and setting: to `CCOc1nnc(-c2cc(NC(=O)c3cnc(N4CCN(CC)CC4)c(C(F)(F)F)c3)ccc2C)cc1C1CCOCC1` [Example 241, N-(3-(6-ethoxy-5-(tetrahydro-2H-pyran-4-yl)pyridazin-3-yl)-4-methylphenyl)-6-(4-ethylpiperazin-1-yl)-5-(trifluoromethyl) nicotinamide] belongs 0.1 nM.

In turn, `Cc1ccc(NC(=O)c2cc(C(F)(F)F)c[nH]c2=O)cc1-c1cc(OCCO)nc(C2CCOCC2)c1` [Example 252, N-(3-(2-(2-hydroxyethoxy)-6-(terahydro-2H-pyran-4-yl)pyridin-4-yl)-4-methylphenyl)-2-oxo-5-(trifluoromethyl)-1,2-dihydropyridine-3-carboxamide] displayed a 50% inhibitory concentration (IC50) of 4 nM. Still for that read-out and setting: the result for `COC1(c2cc(-c3cc(NC(=O)c4cccc(C(F)(F)F)c4)cnc3C)cc(OCCO)n2)COC1` [Example 160, N-(2′-(2-hydroxyethoxy)-6′-(3-methoxyoxetan-3-yl)-2-methyl-[3,4′-bipyridin]-5-yl)-3-(trifluoromethyl)benzamide] reads 0.7 nM; that for `Cc1ccc(NC(=O)c2ccnc(C(F)(F)F)c2)cc1-c1cc(NCCO)nc(C2CCOCC2)c1` [Example 172, N-(3-(2-((2-hydroxyethyl)amino)-6-(tetrahydro-2H-pyran-4-yl)pyridin-4-yl)-4-methylphenyl)-2-(trifluoromethyl) isonicotinamide], 1.99 nM; that for `Cc1nc2cc(C3CCOCC3)cc(-c3cc(NC(=O)c4ccnc(C(F)(F)F)c4)ccc3C)c2[nH]1` [Example 220, N-(4-methyl-3-(2-methyl-5-(tetrahydro-2H-pyran-4-yl)-1H-benzo[d]imidazol-7-yl)phenyl)-2-(trifluoromethyl) isonicotinamide], 0.7 nM. On the same count and under the same terms, to `Cc1ccc(NC(=O)c2ccnc(C(C)(F)F)c2)cc1-c1cnc(-c2cn(C)nc2C)c(C2(O)COC2)c1` [Example 12, 2-(1,1-difluoroethyl)-N-(3-(6-(1,3-dimethyl-1H-pyrazol-4-yl)-5-(3-hydroxyoxetan-3-yl)pyridin-3-yl)-4-methylphenyl)isonicotinamide] belongs 2 nM; to `Cc1ccc(NC(=O)c2cncc(C(F)(F)F)c2)cc1-c1cc(OC[C@H](O)CO)nc(C2CCOCC2)c1` [Example 281, (R)-N-(3-(2-(2,3-dihydroxypropoxy)-6-(tetrahydro-2H-pyran-4-yl)pyridin-4-yl)-4-methylphenyl)-5-(trifluoromethyl) nicotinamide], 0.05 nM. Compound `Cc1ncc(NC(=O)c2cccc(C(F)(F)F)c2)cc1-c1cc(C2(C)COC2)c(OCCO)nn1` [Example 16, N-(5-(6-(2-hydroxyethoxy)-5-(3-methyloxetan-3-yl)pyridazin-3-yl)-6-methylpyridin-3-yl)-3-(trifluoromethyl)benzamide] came in with an IC50 of 0.4 nM.

In the case of `CCOc1ncc(-c2cc(NC(=O)c3ccnc(C(C)(C)F)c3)ccc2C)cc1C1(CO)CCOC1` (stereo not drawn) [Example 291, N-(3-(6-ethoxy-5-(3-(hydroxymethyl)tetrahydrofuran-3-yl)pyridin-3-yl)-4-methylphenyl)-2-(2-fluoropropan-2-yl)isonicotinamide], inhibition was half-maximal at 1 nM (IC50). Turning to `Cc1ncc(NC(=O)c2ccnc(C(F)(F)F)c2)cc1-c1cc(OCCO)nc(C2(F)COC2)c1` [Example 51, N-(2′-(3-fluorooxetan-3-yl)-6′-(2-hydroxyethoxy)-2-methyl-[3,4′-bipyridin]-5-yl)-2-(trifluoromethyl)isonicotin-amide], it took 2.79 nM to reach half-maximal inhibition (IC50). This IC50 lies about 2.8-fold higher than the previous one.

`Cc1ccc(NC(=O)c2cccc(C(F)(F)F)c2)cc1-c1cc(NCCO)nc(C2CCOCC2)c1` [Example 174] returned an IC50 of 0.331 nM.

Compound `Cc1ccc(NC(=O)c2ccnc(C(F)(F)F)c2)cc1-c1cc(OCCO)nc(C2CCOCC2O)c1` (single isomer, unassigned) [Example 250] gave an IC50 of 1 nM. On the same count and under the same terms, the result for `CCOc1nnc(-c2cc(NC(=O)c3ccnc(C(F)(F)F)c3)ccc2C)cc1C1CCOCC1` [Example 239, N-(3-(6-ethoxy-5-(tetrahydro-2H-pyran-4-yl)pyridazin-3-yl)-4-methylphenyl)-2-(trifluoromethyl) isonicotinamide] reads 0.04 nM; that for `COC1(c2cc(-c3cc(NC(=O)c4cccc(C(F)(F)F)c4)cnc3C)cc(NCCO)n2)COC1` [Example 152, N-(2′-((2-hydroxyethyl)amino)-6′-(3-methoxyoxetan-3-yl)-2-methyl-[3,4′-bipyridin]-5-yl)-3-(trifluoromethyl)benzamide], 0.08 nM. On the same count and under the same terms, to `Cc1ccc(NC(=O)c2ccnc(C(F)F)c2)cc1-c1cc(OCCO)nc(C2(CF)COC2)c1` [Example 55, 2-(difluoromethyl)-N-(3-(2-(3-(fluoromethyl)oxetan-3-yl)-6-(2-hydroxyethoxy)pyridin-4-yl)-4-methylphenyl)isonicotin-amide] belongs 0.0747 nM; to `Cc1ccc(NC(=O)c2cc(C(F)(F)F)ccn2)cc1-c1cc(NCCO)nc(C2(O)CCOCC2)c1` [Example 303, N-(3-(2-((2-hydroxyethyl)amino)-6-(4-hydroxytetrahydro-2H-pyran-4-yl)pyridin-4-yl)-4-methylphenyl)-4-(trifluoromethyl) picolinamide], 1.99 nM; to `Cc1ccc(NC(=O)c2ccnc(C(F)(F)F)c2)cc1-c1cc2c(c(C3CCOCC3)c1)NC(=O)C(C)(CO)O2` (stereo not drawn) [Example 242, N-(3-(2-(hydroxymethyl)-2-methyl-3-oxo-5-(tetrahydro-2H-pyran-4-yl)-3,4-dihydro-2H-benzo[b][1,4]oxazin-7-yl)-4-methylphenyl)-2-(trifluoromethyl) isonicotinamide], 0.1 nM.

On to `Cc1ccc(NC(=O)c2ccnc(C(C)(F)F)c2)cc1-c1cc(OCCO)nc(C2(C)CCOCC2)c1` [Example 206, 2-(1,1-difluoroethyl)-N-(3-(2-(2-hydroxyethoxy)-6-(4-methyltetrahydro-2H-pyran-4-yl)pyridin-4-yl)-4-methylphenyl) isonicotinamide], for which the 50% inhibitory concentration (IC50) worked out at 0.4 nM.

`Cc1ncc(NC(=O)c2ccnc(C(C)(C)F)c2)cc1-c1cc(OCCO)nc(C2(CF)COC2)c1` [Example 133, N-(2′-(3-(fluoromethyl)oxetan-3-yl)-6′-(2-hydroxyethoxy)-2-methyl-[3,4′-bipyridin]-5-yl)-2-(2-fluoropropan-2-yl)isonicotinamide]: the IC50 is 1.28 nM. On the same count and under the same terms, to `Cc1ccc(NC(=O)c2cc(C(F)(F)F)ccn2)cc1-c1cc2c(c(C3CCOCC3)c1)NC(=O)C(C)(CO)O2` (single isomer, unassigned) [Example 194, N-(3-(2-(hydroxymethyl)-2-methyl-3-oxo-5-(tetrahydro-2H-pyran-4-yl)-3,4-dihydro-2H-benzo [b][1,4]oxazin-7-yl)-4-methylphenyl)-4-(trifluoromethyl) picolinamide carboxamide] belongs 0.07 nM; to `Cc1ccc(NC(=O)c2cnnc(C(F)(F)F)c2)cc1-c1cc(OCCO)nc(C2(CO)CCOCC2)c1` [Example 217], 0.3 nM; to `Cc1ccc(NC(=O)c2cnnc(C(F)(F)F)c2)cc1-c1cc(OCCO)nc(C2CCOCC2)c1` [Example 271, N-(3-(2-(2-hydroxyethoxy)-6-(tetrahydro-2H-pyran-4-yl)pyridin-4-yl)-4-methylphenyl)-6-(trifluoromethyl) pyridazine-4-carboxamide], 0.02 nM.
